Results published in ChEMBL document CHEMBL1201862, “PubChem BioAssay data set” (2004).
Where a name gives a salt, the structure may show the parent alone. Calls of active or inactive are those of the source.

Legend:
[1] = cytotoxicity toward MDA-MB-231 breast cancer cells – cell-based, CellTiter-Glo luminescence, cherry-pick, cytotoxicity control for RAD54 inhibitor project, dose response (AID 651692); assay type: functional
[2] = non-specific 3'UTR reporter inhibition in Clone20-Shn3RL – cell-based, Renilla luciferase, cherry-picked, counter-screen for Shn3 inhibitor project, dose response (AID 624133); assay type: functional
[3] = Luminescence Cell-Based Dose Retest to Confirm Inhibitors of Cancer Stem Cells. [Related pubchem assays (depositor defined):AID2717, AID2721]; assay type: functional; conditions: Homo sapiens
[4] = biological target: FAD-linked sulfhydryl oxidase ALR (Homo sapiens, UniProt P55789); assay: ALR-catalysed DTT oxidation blockers – biochemical, H2O2 detection, luminescence, cherry-pick, dose response (AID 493248)
FAD-linked sulfhydryl oxidase ALR, sequence (P55789 whole entry): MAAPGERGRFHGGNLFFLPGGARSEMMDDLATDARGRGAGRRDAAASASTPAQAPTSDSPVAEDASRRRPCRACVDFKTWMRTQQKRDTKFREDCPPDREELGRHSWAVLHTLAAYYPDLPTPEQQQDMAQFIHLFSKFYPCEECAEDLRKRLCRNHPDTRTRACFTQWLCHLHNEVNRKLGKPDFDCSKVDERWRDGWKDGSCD

[5] = acridine orange displacement from DNA – biochemical, fluorescence polarization, cherry-pick, artefact control for RAD54 inhibitor project, dose response (AID 651673); assay type: functional
[6] = reduction of Shn3 3'UTR-driven luciferase in osteoblasts – cell-based, Clone20 osteoblasts, firefly luciferase, cherry-picked, dose response (AID 624132); assay type: functional;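 note: firefly luciferase luminescence from reporter carrying the Shn3 3'UTR in osteoblasts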
[7] = loss of viability in HepG2 cells – cell-based, CellTiter-Glo, cherry-picked, cytotoxicity control for Shn3 inhibitor project, dose response (AID 624134); assay type: functional
[8] = biological target: T1, DNA repair protein RAD52 homolog (Homo sapiens, UniProt P43351); assay type: functional, biochemical
T1 sequence (P43351 whole entry): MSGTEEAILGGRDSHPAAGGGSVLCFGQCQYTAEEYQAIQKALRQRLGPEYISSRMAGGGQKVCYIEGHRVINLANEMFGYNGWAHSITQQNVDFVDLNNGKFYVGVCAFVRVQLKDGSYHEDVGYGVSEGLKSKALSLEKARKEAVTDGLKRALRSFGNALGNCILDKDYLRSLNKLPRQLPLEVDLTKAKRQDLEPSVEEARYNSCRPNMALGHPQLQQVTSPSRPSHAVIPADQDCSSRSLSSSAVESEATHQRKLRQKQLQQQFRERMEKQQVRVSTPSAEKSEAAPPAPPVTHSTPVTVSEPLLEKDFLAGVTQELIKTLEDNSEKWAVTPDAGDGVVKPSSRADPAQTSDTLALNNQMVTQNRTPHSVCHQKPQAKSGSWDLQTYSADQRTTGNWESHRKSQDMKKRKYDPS

[9] = HEK-293T viability loss after treatment – luminescence, T-cell screen hits, cytotoxicity control for TCR NF-kB inhibitor project, dose response (AID 489026); assay type: functional, cell-based;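 note: cells exposed to compound about 14 hours before the viability readout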
[10] = biological target: T2, DNA repair and recombination protein RAD54-like (Homo sapiens, UniProt Q92698); assay: RAD54 Holliday junction migration blockers – biochemical, fluorescence, cherry-picked samples, dose series, confirmation (AID 651657); assay type: functional
T2 sequence (Q92698 whole entry): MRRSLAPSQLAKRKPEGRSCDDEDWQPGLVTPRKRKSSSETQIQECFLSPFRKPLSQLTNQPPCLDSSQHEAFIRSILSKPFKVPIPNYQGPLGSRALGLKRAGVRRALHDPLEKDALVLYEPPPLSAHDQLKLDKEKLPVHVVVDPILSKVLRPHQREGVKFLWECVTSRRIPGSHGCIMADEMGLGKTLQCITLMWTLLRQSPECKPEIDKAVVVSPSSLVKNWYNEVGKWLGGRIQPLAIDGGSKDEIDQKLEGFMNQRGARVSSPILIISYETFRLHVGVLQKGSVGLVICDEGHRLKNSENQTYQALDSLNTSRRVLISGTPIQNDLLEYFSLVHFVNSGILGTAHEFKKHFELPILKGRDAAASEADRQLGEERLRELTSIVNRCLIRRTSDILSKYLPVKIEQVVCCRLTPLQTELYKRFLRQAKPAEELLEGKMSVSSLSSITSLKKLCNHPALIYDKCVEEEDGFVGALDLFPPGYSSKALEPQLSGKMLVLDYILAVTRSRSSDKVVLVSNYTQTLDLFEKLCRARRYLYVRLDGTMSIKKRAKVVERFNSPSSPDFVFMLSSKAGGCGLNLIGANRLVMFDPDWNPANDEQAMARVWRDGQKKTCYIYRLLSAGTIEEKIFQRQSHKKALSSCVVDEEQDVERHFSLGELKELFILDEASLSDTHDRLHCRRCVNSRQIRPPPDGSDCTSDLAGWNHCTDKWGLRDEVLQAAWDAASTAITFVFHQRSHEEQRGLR

HEK293 [11] = assay: cells; assay type: functional, cell-based; conditions: Homo sapiens
[12] = HIV-1 AD8 envelope cell-cell fusion blockers – cherry-pick, dose response (AID 652062); assay type: functional, cell-based;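 note: luciferase signal from cell-cell fusion driven by HIV-1 clade B AD8 Env; potency is for inhibitors of fusion seen as a drop in luminescence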
[13] = off-target signal loss in HeLa-CEM21 co-culture – HeLa F-luc CTL cells, cherry-picked, counter-screen for HIV-1 Env fusion inhibitor project, dose response (AID 652040); assay type: functional, cell-based;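 note: potency for signal decrease marking cytotoxic or nonspecific inhibition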
[14] = biological target: Nucleotide-binding oligomerization domain-containing protein 1 (Homo sapiens, UniProt Q9Y239); assay: blockers of NOD1 pathway activity – revised, SAR follow-up (AID 2333); assay type: functional
Nucleotide-binding oligomerization domain-containing protein 1, sequence (Q9Y239 whole entry, the tested form may be a part): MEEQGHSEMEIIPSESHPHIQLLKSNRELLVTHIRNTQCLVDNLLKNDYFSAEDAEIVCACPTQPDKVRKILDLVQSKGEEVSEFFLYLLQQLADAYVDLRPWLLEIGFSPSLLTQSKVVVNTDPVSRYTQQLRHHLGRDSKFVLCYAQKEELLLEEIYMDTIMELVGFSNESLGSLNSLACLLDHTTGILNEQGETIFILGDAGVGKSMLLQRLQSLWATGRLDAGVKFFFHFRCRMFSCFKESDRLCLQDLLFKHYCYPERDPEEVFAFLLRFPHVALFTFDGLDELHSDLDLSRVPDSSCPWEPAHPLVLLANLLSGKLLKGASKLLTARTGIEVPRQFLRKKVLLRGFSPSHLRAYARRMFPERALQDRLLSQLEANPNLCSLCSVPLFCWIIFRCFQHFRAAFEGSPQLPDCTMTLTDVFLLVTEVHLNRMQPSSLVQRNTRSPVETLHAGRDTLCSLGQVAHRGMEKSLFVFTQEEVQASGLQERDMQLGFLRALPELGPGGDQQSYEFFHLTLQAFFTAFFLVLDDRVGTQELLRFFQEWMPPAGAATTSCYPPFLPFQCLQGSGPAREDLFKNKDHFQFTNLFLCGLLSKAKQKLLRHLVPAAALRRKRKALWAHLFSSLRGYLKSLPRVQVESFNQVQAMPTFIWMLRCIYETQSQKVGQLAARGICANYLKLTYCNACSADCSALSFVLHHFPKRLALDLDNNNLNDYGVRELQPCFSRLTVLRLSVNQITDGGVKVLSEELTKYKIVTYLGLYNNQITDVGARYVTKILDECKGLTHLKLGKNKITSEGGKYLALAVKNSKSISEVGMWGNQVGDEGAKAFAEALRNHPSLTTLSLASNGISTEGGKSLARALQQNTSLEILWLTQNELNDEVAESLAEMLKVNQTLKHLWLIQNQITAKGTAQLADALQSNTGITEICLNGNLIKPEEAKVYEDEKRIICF

[15] = HEK-293T viability loss, compound-treated – cell-based, uHTS hits, cytotoxicity control for B/T-cell NF-kB inhibitor project, dose response (AID 489019); assay type: functional;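 note: IC50 reflects cytotoxicity as loss of cell viability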
Galanin receptor type 3 = Galanin receptor type 3 (Homo sapiens, UniProt O60755); assay: Fluorescence-based cell-based primary high throughput dose response assay to identify antagonists of the Galanin Receptor 3 (GalR3).; assay type: functional
Galanin receptor type 3, sequence (O60755 whole entry): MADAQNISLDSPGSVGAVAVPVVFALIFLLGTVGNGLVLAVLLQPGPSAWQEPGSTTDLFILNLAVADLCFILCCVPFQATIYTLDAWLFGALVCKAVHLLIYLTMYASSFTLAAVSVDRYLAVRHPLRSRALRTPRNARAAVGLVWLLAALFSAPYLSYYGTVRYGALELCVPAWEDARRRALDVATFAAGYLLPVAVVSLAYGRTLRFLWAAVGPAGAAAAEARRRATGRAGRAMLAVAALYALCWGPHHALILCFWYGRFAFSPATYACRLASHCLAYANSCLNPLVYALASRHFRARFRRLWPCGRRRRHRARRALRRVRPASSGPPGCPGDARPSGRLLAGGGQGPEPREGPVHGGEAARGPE

HEK293 [16] = assay: cells; conditions: Homo sapiens
[17] = biological target: Eukaryotic translation initiation factor 4E (Mus musculus, UniProt P63073); assay: blockers of eIF4G binding by eIF4E – biochemical, TR-FRET, dose response (AID 855); assay type: functional;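 note: potency for disrupting eIF4E binding to eIF4GI seen as loss of FRET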
Eukaryotic translation initiation factor 4E, sequence (P63073 whole entry): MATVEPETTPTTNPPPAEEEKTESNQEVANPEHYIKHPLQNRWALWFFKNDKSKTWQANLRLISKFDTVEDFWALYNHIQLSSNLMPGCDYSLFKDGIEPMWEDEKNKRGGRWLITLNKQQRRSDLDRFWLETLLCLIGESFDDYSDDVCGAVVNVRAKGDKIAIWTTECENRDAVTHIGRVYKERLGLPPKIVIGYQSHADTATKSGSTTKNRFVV

HEK293 [18] = assay: NOD2 signaling inhibitors in MDP-stimulated cells, cell-based, uHTS, luminescence (AID 2001); assay type: functional; conditions: Homo sapiens
cells = assay type: functional, cell-based; conditions: HEK-CNG
Tumor necrosis factor = Tumor necrosis factor (Homo sapiens, UniProt P01375); assay: analog potency on TNFa NF-kB signaling – cell-based, revised, SAR follow-up (AID 2337); assay type: functional
Tumor necrosis factor, sequence (P01375 whole entry): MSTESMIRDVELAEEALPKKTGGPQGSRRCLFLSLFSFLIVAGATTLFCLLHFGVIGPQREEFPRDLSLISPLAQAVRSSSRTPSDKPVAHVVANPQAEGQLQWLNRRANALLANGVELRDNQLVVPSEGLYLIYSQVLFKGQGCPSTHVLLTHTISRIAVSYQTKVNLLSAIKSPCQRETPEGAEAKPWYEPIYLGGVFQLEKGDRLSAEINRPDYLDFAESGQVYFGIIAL

HEK293 [19] = assay: cells; assay type: functional, cell-based; conditions: Homo sapiens; remark: listed apart in the source
Jurkat = assay: blockers of NF-kB activation in T cells – Jurkat, luciferase reporter, luminescence, B- and T-cell, dose response (AID 489004); assay type: functional, cell-based; conditions: Homo sapiens;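 note: NF-kB luciferase reporter Jurkat cells stimulated with PMA plus ionomycin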
HEK293 [20] = assay: inhibition of NOD1-driven NF-kB reporter – cell-based, luminescence, uHTS, primary screen (AID 1578); assay type: functional; conditions: Homo sapiens
Vero = assay: viability loss in Vero cells – cell-based, plate reader, cherry-pick samples, cytotoxicity control, dose response (AID 687020); assay type: functional; conditions: Chlorocebus sabaeus
Coagulation factor XII = biological target: T3, Coagulation factor XII (Homo sapiens, UniProt P00748); assay type: functional;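 note: activated factor XIIa alpha cleaving a fluorogenic AMC peptide substrate; inhibitor potency from loss of enzyme activity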
T3 sequence (P00748 whole entry): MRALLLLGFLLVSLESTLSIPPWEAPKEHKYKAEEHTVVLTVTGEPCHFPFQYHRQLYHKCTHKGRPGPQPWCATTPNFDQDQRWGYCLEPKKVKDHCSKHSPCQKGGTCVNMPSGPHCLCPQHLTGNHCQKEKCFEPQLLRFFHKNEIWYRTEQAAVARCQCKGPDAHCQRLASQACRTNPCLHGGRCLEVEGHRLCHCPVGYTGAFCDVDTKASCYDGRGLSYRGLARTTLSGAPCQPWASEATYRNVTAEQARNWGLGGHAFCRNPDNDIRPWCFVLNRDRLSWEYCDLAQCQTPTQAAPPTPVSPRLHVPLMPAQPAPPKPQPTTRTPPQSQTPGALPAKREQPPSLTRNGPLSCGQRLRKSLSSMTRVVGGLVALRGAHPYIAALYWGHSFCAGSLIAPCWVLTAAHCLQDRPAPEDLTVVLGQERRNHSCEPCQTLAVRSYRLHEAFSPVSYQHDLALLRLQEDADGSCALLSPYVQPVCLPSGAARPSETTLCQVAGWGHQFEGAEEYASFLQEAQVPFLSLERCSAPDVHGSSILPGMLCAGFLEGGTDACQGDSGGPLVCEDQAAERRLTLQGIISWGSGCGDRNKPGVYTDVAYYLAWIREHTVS

[21] = Counterscreen for activators of the function of SWI/SNF related, matrix associated, actin dependent regulator of chromatin, subfamily a, member 2 (SMARCA2, BRM): Luminescence-based cell-based high throughput dose response assay to identify non-selective compounds using the VP16 reporter assay.; assay type: functional
[22] = biological target: SWI/SNF-related matrix-associated actin-dependent regulator of chromatin subfamily A member 2 (Homo sapiens, UniProt P51531); assay: Luminescence-based cell-based high throughput dose response assay to identify activators of the function of SWI/SNF related, matrix associated, actin dependent regulator of chromatin, subfamily a, member 2 (SMARCA2, BRM).; assay type: functional
SWI/SNF-related matrix-associated actin-dependent regulator of chromatin subfamily A member 2, sequence (P51531 whole entry): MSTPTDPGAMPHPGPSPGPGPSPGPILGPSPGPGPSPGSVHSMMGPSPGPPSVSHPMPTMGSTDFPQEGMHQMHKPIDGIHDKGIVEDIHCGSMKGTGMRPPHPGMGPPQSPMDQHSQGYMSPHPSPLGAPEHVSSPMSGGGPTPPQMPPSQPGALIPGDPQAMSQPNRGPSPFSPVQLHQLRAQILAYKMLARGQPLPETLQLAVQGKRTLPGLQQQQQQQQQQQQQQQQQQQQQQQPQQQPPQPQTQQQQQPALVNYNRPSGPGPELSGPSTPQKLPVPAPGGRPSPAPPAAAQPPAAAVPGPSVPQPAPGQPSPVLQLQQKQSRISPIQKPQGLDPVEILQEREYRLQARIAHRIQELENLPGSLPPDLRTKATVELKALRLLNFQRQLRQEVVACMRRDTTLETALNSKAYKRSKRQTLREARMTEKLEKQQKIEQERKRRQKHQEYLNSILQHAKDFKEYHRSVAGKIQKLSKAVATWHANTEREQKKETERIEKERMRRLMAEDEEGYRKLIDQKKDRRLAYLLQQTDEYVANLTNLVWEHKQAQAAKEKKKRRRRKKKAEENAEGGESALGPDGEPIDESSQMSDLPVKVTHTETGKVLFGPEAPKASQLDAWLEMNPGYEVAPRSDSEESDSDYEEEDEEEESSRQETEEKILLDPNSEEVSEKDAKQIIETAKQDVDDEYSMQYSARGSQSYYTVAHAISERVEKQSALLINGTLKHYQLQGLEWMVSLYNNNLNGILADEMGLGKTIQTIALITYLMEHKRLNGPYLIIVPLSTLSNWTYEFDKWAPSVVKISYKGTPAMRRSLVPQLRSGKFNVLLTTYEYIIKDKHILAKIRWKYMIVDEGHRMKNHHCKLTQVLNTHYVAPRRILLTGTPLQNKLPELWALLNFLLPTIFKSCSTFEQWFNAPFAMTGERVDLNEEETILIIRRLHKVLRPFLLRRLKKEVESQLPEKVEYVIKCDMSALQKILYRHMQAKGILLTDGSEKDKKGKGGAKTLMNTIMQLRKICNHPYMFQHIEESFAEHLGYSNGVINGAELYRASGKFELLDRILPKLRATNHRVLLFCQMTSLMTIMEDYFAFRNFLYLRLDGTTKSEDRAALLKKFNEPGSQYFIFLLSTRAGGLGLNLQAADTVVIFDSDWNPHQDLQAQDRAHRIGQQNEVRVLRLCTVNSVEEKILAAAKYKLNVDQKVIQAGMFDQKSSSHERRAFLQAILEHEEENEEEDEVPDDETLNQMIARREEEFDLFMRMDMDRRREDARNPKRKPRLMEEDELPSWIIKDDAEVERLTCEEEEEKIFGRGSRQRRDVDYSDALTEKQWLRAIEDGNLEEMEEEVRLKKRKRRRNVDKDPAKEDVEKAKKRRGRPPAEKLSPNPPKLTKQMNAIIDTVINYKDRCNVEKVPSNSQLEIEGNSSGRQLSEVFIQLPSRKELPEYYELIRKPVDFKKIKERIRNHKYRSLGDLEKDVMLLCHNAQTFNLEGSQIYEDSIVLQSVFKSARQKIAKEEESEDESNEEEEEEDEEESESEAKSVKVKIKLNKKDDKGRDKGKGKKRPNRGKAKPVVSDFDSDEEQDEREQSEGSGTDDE

[23] = viability loss in THP-1 monocytes – THP-1 cells, cytotoxicity control for Vif-APOBEC3G degradation inhibitor project, dose response (AID 1117359); assay type: functional; conditions: THP-1

In the case of `COc1cc(NS(C)(=O)=O)ccc1Nc1c2ccccc2nc2ccccc12` [AMSACRINE HYDROCHLORIDE], the AC50 [1] is reported as 23.3 µM (active), the AC50 [2] is reported as 7.09 µM (active) and the AC50 [3] is reported as 0.91 µM (active). For the same compound, the AC50 [4] was 16 µM (active), the AC50 [5] was 39.4 µM (active) and the AC50 [6] was 1.32 µM (active). For the same compound, the AC50 [7] was 18.9 µM (active), the AC50 [8] was 6.83 µM (active) and the IC50 [9] was > 80 µM (inactive). For the same compound, the AC50 [10] was 11.6 µM (active).

With `CCCCCn1c(=O)[nH]c2cc(C(=O)N3CCN(Cc4ccc5c(c4)OCO5)CC3)ccc2c1=O` the IC50 (HEK293 [11]) was 8.7 µM (active), the AC50 [12] was < 0.26 µM (active) and the AC50 [13] was > 70 µM (inactive). The IC50 [14] was 0.771 µM (active), the IC50 [15] was > 80 µM (inactive) and the IC50 (Galanin receptor type 3) was 0.148 µM (active). The IC50 (HEK293 [16]) was > 20 µM (inactive), the IC50 [17] was > 64 µM (inactive) and the IC50 (HEK293 [18]) was 1.27 µM (active). For the same compound, the EC50 (cells) was > 29.9 µM (inactive), the IC50 (Tumor necrosis factor) was 1.18 µM (active) and the IC50 (HEK293 [19]) was 0.97 µM (active). For the same compound, the IC50 (Jurkat) was > 80 µM (inactive) and the EC50 (HEK293 [20]) was 0.36 µM (active).

In the case of `Cc1cc(F)ccc1C(O)c1nc(-c2ccccc2C(F)(F)F)c[nH]1` (centres undefined), the AC50 (Vero) is reported as 33.5 µM (active).

With `CC1(C)CC(=O)C(=NNc2ccc(Br)cc2)C(=O)C1` the IC50 (Coagulation factor XII) was > 50 µM (inactive), the EC50 [21] was > 91.1 µM (inactive) and the EC50 [22] was > 91.1 µM (inactive). The CC50 [23] was > 40 µM (active).
